In assay [1] the test system is IMR-90 SnC (irradiated senescent IMR90 cells). Nature of the assay: Senolysis assay (CellTiter-Glo viability). It is filed as cell-based, human. The following applies: for EC50: Homo sapiens, IMR-90, light or radiation study, 72 h, X-ray irradiated senescent IMR90 cells, viability three days after compound addition; for SI (ratio of EC50 of non-senescent cells to EC50 of senescent cells): IMR90 non-senescent vs senescent cells. Here is the method:
IMR90 cells are maintained in DMEM supplemented with 10% FBS. To prepare a senescent population, cells were trypsinized, diluted to 50,000 per mL, and irradiated with 10-15 Gy of X-ray irradiation. Irradiated cells were plated at 5000 cells per well in one third of a 96-well plate and maintained for two weeks prior to the assay. Four days prior to the assay, non-senescent IMR90s were plated at 2500 per well in the second third of the plate. One day prior to the assay, 2500 non-senescent cells were plated in the final third of the plate. Compounds were prepared as a 200×DMSO dilution series then diluted to 1× in media immediately before adding to cells. Three days after compound addition, cell viability was measured using CellTiter-Glo reagent from Promega. Viability was calculated relative to a DMSO control and EC50 values are calculated in Prism GraphPad. […] The selectivity (SI) of the compounds described herein is a ratio of the EC50 of non-senescent cells to the EC50 of senescent cells. The SI of the compounds described herein is 10 or above for “A” selectivity, between 2 and 10 for “B” selectivity or 2 or less for “C” selectivity.
In general terms: Cellular ATP, detected with luciferase, serves as a proxy for viable cell number.

In a further assay the target is BCL-2 (Homo sapiens, UniProt P10415). Nature of the assay: BCL-binding assay (AlphaLISA competition, BIM peptide). The following applies: 6xHis BCL-2 with biotinylated BIM peptide, 24 hr incubation. Here is the method:
(§1) Compounds were prepared as 400× DMSO stock solutions in a 1:4 dilution series then diluted […] in assay buffer (25 mM HEPES pH 7.5, 100 mM NaCl, 0.1% BSA, 0.005% Tween) immediately before use. Aliquots of 400 nM 6xHis-tagged BCL-xL, BCL-2, and BCL-w were thawed on ice and diluted to 0.4 (BCL-XL) or 0.8 (BCL-W and 2) nM in assay buffer. Aliquots of biotinylated BIM and BAD peptides were diluted in assay buffer to 120 and 60 nM respectively. Ten microliters of biotinylated peptide were added to wells of a 96-well PCR plate, followed by ten microliters of inhibitor, then ten microliters of BCL protein, BCL-XL with BAD and BCL-W/2 with BIM. The plates were sealed and incubated at room temperature. After 24 hr, 0.16 μg Anti-His conjugated AlphaLISA acceptor beads were added in 5 μL assay buffer. After one hour at room temperature, 0.16 μg AlphaScreen streptavidin donor beads were added in 5 μL assay buffer and plates were incubated an additional 30 min in the dark. Two 17 μL aliquots of each reaction were plated in a Perkin Elmer 384-well proxiplate, and plates were scanned for using a Perkin Elmer Enspire plate reader. Kd values were calculated in Prism Graph Pad using a one site competitive binding model and previously determined Kd values for each protein peptide pair. […]
A general note: In Alpha technology, singlet oxygen from a donor bead excites a nearby acceptor bead.

In the next assay the target is T1, BCL-w (Homo sapiens, UniProt Q92843).
T1 sequence (Q92843 1-193): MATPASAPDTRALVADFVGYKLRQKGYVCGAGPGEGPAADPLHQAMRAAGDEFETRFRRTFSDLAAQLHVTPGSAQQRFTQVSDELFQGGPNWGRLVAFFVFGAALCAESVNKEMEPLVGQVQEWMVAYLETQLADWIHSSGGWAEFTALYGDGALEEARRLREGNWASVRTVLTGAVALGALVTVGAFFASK
Described as above. As to conditions: 6xHis BCL-w with biotinylated BIM peptide, 24 hr incubation. As for the experimental part: as §1

For another assay, the target named is BCL-xL (Homo sapiens, UniProt Q07817). Nature of the assay: BCL-binding assay (AlphaLISA competition, BAD peptide). As to conditions: 6xHis BCL-xL with biotinylated BAD peptide, 24 hr incubation. Here is the method:
as §1

Sequence of BCL-2 (P10415 whole entry, species assumed): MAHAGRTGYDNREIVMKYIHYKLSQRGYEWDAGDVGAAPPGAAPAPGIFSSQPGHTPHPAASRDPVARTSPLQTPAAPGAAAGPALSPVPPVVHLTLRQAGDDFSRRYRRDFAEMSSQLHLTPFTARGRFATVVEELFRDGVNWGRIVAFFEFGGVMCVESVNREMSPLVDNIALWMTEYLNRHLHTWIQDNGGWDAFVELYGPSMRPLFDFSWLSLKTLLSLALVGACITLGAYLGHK
Sequence of BCL-xL (Q07817 whole entry, species assumed): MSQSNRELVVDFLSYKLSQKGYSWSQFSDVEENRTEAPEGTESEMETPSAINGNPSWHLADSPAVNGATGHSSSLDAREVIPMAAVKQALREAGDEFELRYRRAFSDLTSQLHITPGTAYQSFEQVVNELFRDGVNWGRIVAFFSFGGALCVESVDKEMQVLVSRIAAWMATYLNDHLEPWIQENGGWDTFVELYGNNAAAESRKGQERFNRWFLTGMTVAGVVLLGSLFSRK

For orientation: EC50 means the concentration needed to bring the measured effect to its halfway point. Higher therefore signals a need for much substance. One may read the Kd as the equilibrium constant for the complex coming apart. Low values mean tighter binding, high ones weaker binding. As for `CCOP(=O)(CN1CCN(CC[C@H](CSc2ccccc2)Nc2ccc(S(=O)(=O)NC(=O)c3ccc(N4CCN(CC5=C(c6ccc(Cl)cc6)CCC(C)(C)C5)CC4)cc3)cc2S(=O)(=O)C(F)(F)F)CC1)OCOC(=O)C(C)(C)C` (stereo partly drawn) [Compound 28, (((4-((R)-3-((4-(N-(4-(4-((4′-Chloro-4,4-dimethyl-3,4,5,6-tetrahydro-[1,1′-biphenyl]-2-yl)methyl)piperazin-1-yl)benzoyl)sulfamoyl)-2-((trifluoromethyl)sulfonyl)phenyl)amino)-4-(phenylthio)butyl)piperazin-1-yl)methyl)(ethoxy)phosphoryl)oxy)methyl pivalate], the EC50 in assay [1] is < 1000 nM. Also, in assay [1], the “SI (ratio of EC50 of non-senescent cells to EC50 of senescent cells)” value was “B (between 2 and 10)”. Besides, the Kd is < 1 nM at BCL-2, 10 to 50 nM at BCL-w and 1 to 10 nM at BCL-xL.

In assay [1], `CCOP(=O)(CN1CCN(CC[C@H](CSc2ccccc2)N(c2ccc(S(=O)(=O)NC(=O)c3ccc(N4CCN(CC5=C(c6ccc(Cl)cc6)CCC(C)(C)C5)CC4)cc3)cc2S(=O)(=O)C(F)(F)F)S(C)(=O)=O)CC1)OCC` [Compound 29] displayed an EC50 of 1000 to 10000 nM. Also, the “SI (ratio of EC50 of non-senescent cells to EC50 of senescent cells)” value in assay [1] is “C (2 or less)”. Also, the Kd on BCL-2 was 10 to 50 nM; at BCL-w, > 50 nM; on BCL-xL, 10 to 50 nM.

As for `CCOP(=O)(O)CN1CCN(CC[C@H](CSc2ccccc2)N(c2ccc(S(=O)(=O)NC(=O)c3ccc(N4CCN(CC5=C(c6ccc(Cl)cc6)CCC(C)(C)C5)CC4)cc3)cc2S(=O)(=O)C(F)(F)F)S(C)(=O)=O)CC1` [Compound 30], the EC50 in assay [1] fell in the range of 1000 to 10000 nM. Further, the Kd on BCL-2 is 1 to 10 nM; on BCL-w, > 50 nM; on BCL-xL it was 1 to 10 nM.

With `CCOP(=O)(O)CCCN1CCN(CC[C@H](CSc2ccccc2)Nc2ccc(S(=O)(=O)NC(=O)c3ccc(N4CCN(CC5=C(c6ccc(Cl)cc6)CCC(C)(C)C5)CC4)cc3)cc2S(=O)(=O)C(F)(F)F)CC1` [Compound 31], the EC50 in assay [1] was > 10000 nM. In addition, the equilibrium dissociation constant (Kd) at BCL-2 was < 1 nM; on BCL-w, 1 to 10 nM; at BCL-xL it was < 1 nM.

In the case of `CC1(C)CCC(c2ccc(Cl)cc2)=C(CN2CCN(c3ccc(C(=O)NS(=O)(=O)c4ccc(N[C@H](CCN5CCN(CCCP(=O)(O)O)CC5)CSc5ccccc5)c(S(=O)(=O)C(F)(F)F)c4)cc3)CC2)C1` [Compound 32], the EC50 in assay [1] is > 10000 nM. For the same compound, the figures for the Kd on BCL-2, at BCL-w and at BCL-xL were < 1 nM, 10 to 50 nM and < 1 nM, respectively.

`CCOP(=O)(CCCN1CCN(CC[C@H](CSc2ccccc2)Nc2ccc(S(=O)(=O)NC(=O)c3ccc(N4CCN(CC5=C(c6ccc(Cl)cc6)CCC(C)(C)C5)CC4)cc3)cc2S(=O)(=O)C(F)(F)F)CC1)OCOC(=O)C(C)(C)C` (stereo partly shown) [Compound 33]: in assay [1], the EC50 was > 10000 nM. Moreover, the “SI (ratio of EC50 of non-senescent cells to EC50 of senescent cells)” value in assay [1] was “B (between 2 and 10)”. Further, the Kd is < 1 nM at BCL-2, 1 to 10 nM at BCL-w and < 1 nM on BCL-xL.

Take `CCOP(=O)(CN1CCN(CC(CSc2ccccc2)Nc2ccc(S(=O)(=O)NC(=O)c3ccc(N4CCN(CC5=C(c6ccc(Cl)cc6)CCC(C)(C)C5)CC4)cc3)cc2S(=O)(=O)C(F)(F)F)CC1)OCC` (stereo not shown) [Compound 34]: the concentration giving a half-maximal response (EC50) in assay [1] is > 10000 nM. Also, in assay [1], the “SI (ratio of EC50 of non-senescent cells to EC50 of senescent cells)” value is on record as “C (2 or less)”. Moreover, the Kd on BCL-2 is < 1 nM; on BCL-w, > 50 nM; on BCL-xL, 1 to 10 nM.

`CCOP(=O)(CCN1CCN(CC(CSc2ccccc2)Nc2ccc(S(=O)(=O)NC(=O)c3ccc(N4CCN(CC5=C(c6ccc(Cl)cc6)CCC(C)(C)C5)CC4)cc3)cc2S(=O)(=O)C(F)(F)F)CC1)OCC` (stereo not shown) [Compound 35, Diethyl (2-(4-(2-((4-(N-(4-(4-((4′-chloro-4,4-dimethyl-3,4,5,6-tetrahydro-[1,1′-biphenyl]-2-yl)methyl)piperazin-1-yl)benzoyl)sulfamoyl)-2-((trifluoromethyl)sulfonyl)phenyl)amino)-3-(phenylthio)propyl)piperazin-1-yl)ethyl)phosphonate] gave an EC50 in assay [1] of 1000 to 10000 nM. Moreover, the “SI (ratio of EC50 of non-senescent cells to EC50 of senescent cells)” value in assay [1] was “C (2 or less)”. The Kd is < 1 nM at BCL-2, > 50 nM on BCL-w and 1 to 10 nM at BCL-xL.

In turn, `CCOP(=O)(CCCN1CCN(CC[C@H](CSc2ccccc2)Nc2ccc(S(=O)(=O)NC(=O)c3ccc(N4CCN(CC5=C(c6ccc(Cl)cc6)CCC(C)(C)C5)CC4)cc3)cc2S(=O)(=O)C(F)(F)F)CC1)OCOC(=O)OC(C)C` (stereo partly shown) [Compound 36] came in with an EC50 in assay [1] of 1000 to 10000 nM. In addition, the “SI (ratio of EC50 of non-senescent cells to EC50 of senescent cells)” value in assay [1] was “B (between 2 and 10)”. The dissociation constant (Kd) on BCL-2 is < 1 nM; on BCL-w, 10 to 50 nM; on BCL-xL, < 1 nM.

Take `CCOP(=O)(CCCN1CCN(CC[C@H](CSc2ccccc2)Nc2ccc(S(=O)(=O)NC(=O)c3ccc(N4CCN(CC5=C(c6ccc(Cl)cc6)CCC(C)(C)C5)CC4)cc3)cc2S(=O)(=O)C(F)(F)F)CC1)OCOC(C)=O` (stereo partly shown) [Compound 37]: the EC50 in assay [1] was in the range of 1000 to 10000 nM. The “SI (ratio of EC50 of non-senescent cells to EC50 of senescent cells)” value in assay [1] was “B (between 2 and 10)”. In addition, the Kd at BCL-2 was < 1 nM; at BCL-w, 1 to 10 nM; on BCL-xL, < 1 nM.

Regarding `CCOP(=O)(CCN1CCN(CC[C@H](CSc2ccccc2)Nc2ccc(S(=O)(=O)NC(=O)c3ccc(N4CCN(CC5=C(c6ccc(Cl)cc6)CCC(C)(C)C5)CC4)cc3)cc2S(=O)(=O)C(F)(F)F)CC1)OCOC(=O)C(C)(C)C` (stereo partly shown) [Compound 38], in assay [1], the concentration for a half-maximal effect (EC50) was 1000 to 10000 nM. The “SI (ratio of EC50 of non-senescent cells to EC50 of senescent cells)” value in assay [1] was “A (10 or above)”. In addition, the values for the Kd on BCL-2, on BCL-w and at BCL-xL were < 1 nM, 10 to 50 nM and < 1 nM, respectively.

In the case of `CCOP(=O)(CN1CCN(CC[C@H](CSc2ccccc2)Nc2ccc(S(=O)(=O)NC(=O)c3ccc(N4CCN(CC5=C(c6ccc(Cl)cc6)CCC(C)(C)C5)CC4)cc3)cc2S(=O)(=O)C(F)(F)F)CC1)OCOC(=O)OC(C)C` (stereo partly drawn) [Compound 39, [[4-[(3R)-3-[4-[[4-[4-[[2-(4-Chlorophenyl)-5,5-dimethyl-cyclohexen-1-yl]methyl]piperazin-1-yl]benzoyl]sulfamoyl]-2-(trifluoromethylsulfonyl)anilino]-4-phenylsulfanyl-butyl]piperazin-1-yl]methyl-ethoxy-phosphoryl]oxymethyl isopropyl carbonate], in assay [1], the EC50 is < 1000 nM. Also, the “SI (ratio of EC50 of non-senescent cells to EC50 of senescent cells)” value in assay [1] is reported as “A (10 or above)”. In addition, the Kd on BCL-2 was < 1 nM; on BCL-w, 10 to 50 nM; at BCL-xL, < 1 nM.

On to `CC1(C)CCC(c2ccc(Cl)cc2)=C(CN2CCN(c3ccc(C(=O)NS(=O)(=O)c4ccc(N[C@H](CCN5CCN(CCCP(=O)(OCOC(=O)C(C)(C)C)OCOC(=O)C(C)(C)C)CC5)CSc5ccccc5)c(S(=O)(=O)C(F)(F)F)c4)cc3)CC2)C1` [Compound 40], for which the EC50 in assay [1] is > 10000 nM. Besides, the “SI (ratio of EC50 of non-senescent cells to EC50 of senescent cells)” value in assay [1] was “B (between 2 and 10)”. The Kd on BCL-2 is < 1 nM; at BCL-w it was 10 to 50 nM; at BCL-xL, < 1 nM.

As for `CCOP(=O)(C=C1CCN(CC[C@H](CSc2ccccc2)Nc2ccc(S(=O)(=O)NC(=O)c3ccc(N4CCN(CC5=C(c6ccc(Cl)cc6)CCC(C)(C)C5)CC4)cc3)cc2S(=O)(=O)C(F)(F)F)CC1)OCC` [Compound 41, Diethyl (R)-((1-(3-((4-(N-(4-(4-((4′-chloro-4,4-dimethyl-3,4,5,6-tetrahydro-[1,1′-biphenyl]-2-yl)methyl)piperazin-1-yl)benzoyl)sulfamoyl)-2-((trifluoromethyl)sulfonyl)phenyl)amino)-4-(phenylthio)butyl)piperidin-4-ylidene)methyl)phosphonate], the concentration giving a half-maximal response (EC50) in assay [1] was < 1000 nM. The “SI (ratio of EC50 of non-senescent cells to EC50 of senescent cells)” value in assay [1] is reported as “A (10 or above)”. The Kd is < 1 nM on BCL-2, 1 to 10 nM on BCL-w and < 1 nM at BCL-xL.

Source of the values: patent publication US11111259B2, “Acylsulfonamide derivatives for treating senescence-associated diseases and disorders” (Unity Biotechnology, Inc., priority 2015, dated 2021).
